Data reported in US7279321B2, “Methods for increasing the resistance of a host cell to aromatic carboxylic acids” (priority 2003, dated 2007).
≈ marks a conversion by molar mass, not a printed value.

Legend:
[1] = tested on: yhcRQP-luxCDABE gene fusion in strain DPD2436 (yhcS+); assay: Bioluminescence response of yhcRQP-luxCDABE gene fusion; type: cell-based, E. coli; conditions: LB pH 7.0, sodium salt
Excerpt: (§1) Plasmid pDEW655 was constructed by ligating an E. coli chromosomal segment between nucleotides 3385829 and 3386761 according to the E. coli genomic sequence, which contains the promoter region of the putative yhcRQP operon and the entire yhcR gene and the 5′ end of the yhcQ gene, to the luxCDABE genes parental plasmid, pDEW201 (Gonye et al. U.S. Patent Application Publication 20030219736). Thus, this gene fusion will report on expression of the yhcQ gene and accordingly any other genes cotranscribed with it. Plasmid pDEW655 was moved to E. coli strains MG1655 and DPD2433 by transformation, selecting for Ampicillin resistance to generate strains DPD2436 and DPD2437, respectively. The bioluminescent response of these two strains to pHBA was tested.

[2] = tested on: yhcRQP-luxCDABE gene fusion in strain DPD2437 (yhcS−); assay: as above; type: cell-based, E. coli; conditions: LB pH 7.0, sodium salt
Excerpt: as §1

[3] = tested on: E. coli strain MG1655 (+); assay: Growth in LB medium in the presence of pHBA, scored visually; type: cell-based; also: key: ++++ indicates full turbidity; +++ indicates moderate, but visually less than full turbidity; + indicates very slight turbidity; − indicates no turbidity
Excerpt: (§2) Strain DPD1818 carries a to/C::miniTn10 mutation in the MG1655 background. It was constructed by transduction of E. coli MG1655 using P1clr100 Cm phage grown on E. coli strain DE112 (Van Dyk et al. Appl. Environ. Microbiol. 60:1414-1420 (1994)), which carries a tolC::miniTn10 mutation, and selection for tetracycline resistance. Strain DPD2444, described above, carries a yhcP::TN<Kan> mutation. Strain DP2446 carries both the tolC::miniTn10 and yhcP::TN<Kan>. This strain was constructed using by P1clr100Cm mediated transduction of DE112 with phage grown on strain DPD2443 and selection for kanamycin resistance. Each of these mutant strains was grown overnight in LB medium at 37° C. […] The final volume in the wells of a 96-well microplate was 100 μl and the final dilution of the inoculum was 1 to 1000. This microplate was covered and incubated at 37° C. for 7 hours and then incubated at room temperature for 3 days. The growth in each well was then scored visually.

[4] = tested on: E. coli strain DPD2444 (yhcP); assay: as above; type: cell-based; also: key: ++++ indicates full turbidity; +++ indicates moderate, but visually less than full turbidity; + indicates very slight turbidity; − indicates no turbidity
Excerpt: as §2

[5] = tested on: E. coli strain DPD1818 (tolC); assay: as above; type: cell-based; also: key: ++++ indicates full turbidity; +++ indicates moderate, but visually less than full turbidity; + indicates very slight turbidity; − indicates no turbidity
Excerpt: as §2

[6] = tested on: E. coli strain DPD2446 (tolC yhcP); assay: as above; type: cell-based; also: key: ++++ indicates full turbidity; +++ indicates moderate, but visually less than full turbidity; + indicates very slight turbidity; − indicates no turbidity
Excerpt: as §2

[7] = tested on: E. coli strain DPD2433 (yhcS−); assay: pHBA zone of growth inhibition on solidified Vogel-Bonner medium; type: cell-based; conditions: sodium salt of pHBA 80 μmoles/disk, Vogel-Bonner with glucose
Description: (§5) This was tested by measuring the size of the zone of growth inhibition and scoring the degree of growth within the zones resulting from the sodium salt of pHBA (80 μmoles/disk) on solidified Vogel-Bonner medium with glucose as the carbon source (Table 5).

E. coli strain MG1655 = assay: as above; type: cell-based; conditions: sodium salt of pHBA 80 μmoles/disk, Vogel-Bonner with glucose
Description: as §5

E. coli DPD2444 (yhcP−) = assay: microbe, parasite or virus in culture; type: cell-based
Description: (§3) Additional compounds were tested for growth inhibition of E. coli MG1655 (yhcP^+) and DPD2444 (yhcP^−) in Vogel-Bonner medium with glucose as the carbon source and with 0.01% tetrazolium violet added as an indicator of viability. A series of two-fold dilutions of each chemical was made to the wells of a clear 96-well microplate in 50 μl volume. To these wells was added 50 μl of an overnight culture in Vogel Bonner medium with glucose as a carbon source of either MG1655 or DPD2444 that had been previously diluted 500-fold into fresh medium. The plates were incubated at 37° C. without shaking for 16 to 18 hours. The purple color in each well was visually scored. A score of 4+ indicated full purple color equivalent to a no chemical control well. Scores of 3+, 2+, or 1+ indicated decreasing amounts of purple color. A score of − indicated the complete absence of color. The MIC was defined as the lowest tested concentration that gave complete absence of color. The rank of difference between strains was defined as the score of pigment color for E. coli MG1655 in wells containing the concentration of a given chemical at the MIC for DPD24444. When MG1655 had no color, the score was 0. When MG 1655 was scored at 1+, the score was 1, when scored at 2+, the score was 2, etc.

E. coli MG1655 (yhcP+) = assay: microbe, parasite or virus in culture; type: cell-based
Description: as §3

[8] = tested on: E. coli strain DH5αE (parental); assay: zone of growth inhibition test on LB agar plates; type: cell-based; conditions: disk with 90 μmol pHBA sodium salt, 24 hr at 37° C.
Description: (§4) A zone of growth inhibition test was done using 0.1 ml of overnight cultures in LB medium plated onto LB agar plates using 2.5 ml LB soft agar.

[9] = tested on: E. coli strain DPD2443 (yhcP::TN<Kan> of DH5αE); assay: zone of growth inhibition test on LB agar plates; type: cell-based; conditions: disk with 90 μmol pHBA sodium salt, 24 hr at 37° C.
Description: as §4

## O=C(O)c1ccc(O)cc1 [pHBA, para-hydroxybenzoic acid]
[1]; [pHBA] 1.6, thirty minutes
  RLU: 6.72 RLU
[1]; [pHBA] 3.1, thirty minutes
  RLU: 10.2 RLU
[1]; [pHBA] 6.2, thirty minutes
  RLU: 16.2 RLU
[1]; [pHBA] 12.5, thirty minutes
  RLU: 30.8 RLU
[1]; [pHBA] 25, thirty minutes
  RLU: 66.6 RLU
[1]; [pHBA] 50, thirty minutes
  RLU: 91.7 RLU
[1]; [pHBA] 100, thirty minutes
  RLU: 0.437 RLU
[2]; [pHBA] 1.6, thirty minutes
  RLU: 1.02 RLU
[2]; [pHBA] 3.1, thirty minutes
  RLU: 1.16 RLU
[2]; [pHBA] 6.2, thirty minutes
  RLU: 1.42 RLU
[2]; [pHBA] 12.5, thirty minutes
  RLU: 1.82 RLU
[2]; [pHBA] 25, thirty minutes
  RLU: 1.59 RLU
[2]; [pHBA] 50, thirty minutes
  RLU: 0.614 RLU
[2]; [pHBA] 100, thirty minutes
  RLU: 0.045 RLU
[3]; 25 mM pHBA sodium salt
  Growth in LB medium for 3 days at room temperature with pHBA: ++++
[3]; 50 mM pHBA sodium salt
  Growth in LB medium for 3 days at room temperature with pHBA: ++++
[3]; 100 mM pHBA sodium salt
  Growth in LB medium for 3 days at room temperature with pHBA: +++
[3]; 200 mM pHBA sodium salt
  Growth in LB medium for 3 days at room temperature with pHBA: −
[4]; 25 mM pHBA sodium salt
  Growth in LB medium for 3 days at room temperature with pHBA: ++++
[4]; 50 mM pHBA sodium salt
  Growth in LB medium for 3 days at room temperature with pHBA: ++++
[4]; 100 mM pHBA sodium salt
  Growth in LB medium for 3 days at room temperature with pHBA: −
[4]; 200 mM pHBA sodium salt
  Growth in LB medium for 3 days at room temperature with pHBA: −
[5]; 25 mM pHBA sodium salt
  Growth in LB medium for 3 days at room temperature with pHBA: ++++
[5]; 50 mM pHBA sodium salt
  Growth in LB medium for 3 days at room temperature with pHBA: ++++
[5]; 100 mM pHBA sodium salt
  Growth in LB medium for 3 days at room temperature with pHBA: +
[5]; 200 mM pHBA sodium salt
  Growth in LB medium for 3 days at room temperature with pHBA: −
[6]; 25 mM pHBA sodium salt
  Growth in LB medium for 3 days at room temperature with pHBA: ++++
[6]; 50 mM pHBA sodium salt
  Growth in LB medium for 3 days at room temperature with pHBA: +
[6]; 100 mM pHBA sodium salt
  Growth in LB medium for 3 days at room temperature with pHBA: −
[6]; 200 mM pHBA sodium salt
  Growth in LB medium for 3 days at room temperature with pHBA: −
[7]
  degree of growth within the pHBA zone of growth inhibition: clear
[7]; average of two experiments
  pHBA zone of growth inhibition, mm diameter: 20.2 mm
E. coli strain MG1655
  degree of growth within the pHBA zone of growth inhibition: turbid
E. coli strain MG1655; average of two experiments
  pHBA zone of growth inhibition, mm diameter: 9.5 mm
E. coli DPD2444 (yhcP−); Escherichia coli, read-out: MIC, DPD2444 (yhcP−)
  MIC: 12.5 mM (≈ 1730 µg/mL)
E. coli DPD2444 (yhcP−); MIC difference at least 2-fold and rank at least 2
  defined as substrate of the YhcP efflux pump by this genetic test: substrates of the YhcP efflux pump
E. coli MG1655 (yhcP+); Escherichia coli, MG1655, read-out: MIC, MG1655 (yhcP+)
  MIC: 100 mM (≈ 13800 µg/mL)
E. coli MG1655 (yhcP+); score of pigment color for MG1655 at the MIC for DPD2444 (0 = no color, 4 = full purple color)
  Rank Diff: 4
[8]
  pHBA zone of growth inhibition, mm diameter: 9.0 mm
[9]
  pHBA zone of growth inhibition, mm diameter: 13.0 mm
